Consider 1 compound from patent US6432987B1, “Substituted N-benzylindol-3-ylglyoxylic acid derivatives having antitumor action” (Zentaris AG, priority 1999, dated 2002).

The experiment concerns tubulin. The experiment can be described thus: tubulin polymerization assay. The experiment is classed as biochemical. As to conditions: result in words only. The text has this:
It was possible to show the activity of the present compounds in a tubulin polymerization assay.

For the compound `Nc1ccc(Cn2cc(C(=O)C(=O)Nc3ccncc3)c3ccccc32)cc1` [Example D-68838, N-(Pyridin-4-yl)-[1-(4-aminobenzyl)indol-3-yl]glyoxyl-amide], the “inhibition of the polymerization of tubulin” value was “inhibits the polymerization of tubulin”.
